Results taken from patent publication US20260184710A1, “CASITAS B-LINEAGE LYMPHOMA PROTOONCOGENE B (CBL-B) DEGRADING COMPOUNDS AND ASSOCIATED METHODS OF USE” (Arvinas Operations, Inc., priority 2022, published 2026).

Tests used:
Cbl-b [1] = molecular target: T1, Cbl-b (Homo sapiens, UniProt Q13191); assay: Cbl-b Degradation Method B (Nano-Glo HiBiT lytic detection); assay type: cell-based; settings: Cbl-b-HiBit KI Jurkat Cells, incubated at least 6-24 hours; for DC50: half maximal degradation, read-out: Cbl-b Degredation Method B IC50; for Dmax / Cbl-b Degredation Method B Dmax (%): maximum degradation observed; for Dmax: read-out: Cbl-b Degredation Method B Dmax (%)
T1 construct: Cbl-b-HiBit KI Jurkat Cells were purchased from Promega; host or cells: Cbl-b-HiBiT knock-in Jurkat cells
Outline: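 An 11-point, 3-fold compound dilution was applied for 6-24 hours to Jurkat cells carrying HiBiT-tagged endogenous Cbl-b. Lytic HiBiT luminescence quantified residual protein. Outputs are DC50 and Dmax relative to DMSO control.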

Cbl-b [2] = molecular target: T1, Cbl-b; assay: Cbl-b Degradation Method A (FACS, anti-Cbl-b antibody staining); assay type: cell-based; settings: for DC50: half maximal degradation, read-out: Cbl-b Degredation Method A IC50; for Dmax: Jurkat, read-out: Cbl-b Degredation Method A Dmax (%)
Outline: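 Readout is flow cytometry of fixed, permeabilized cells immunostained for Cbl-b (primary 1:200, AF488 secondary). Cells were Cbl-b-HiBit knock-in Jurkat, exposed to compound ≥20 h at 37 °C; half-maximal degradation concentration (DC50) and maximal degradation (Dmax) calculated relative to control.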

[3] = Cbl-b-HiBit KI Jurkat Cells, incubated at least 20 hours
[4] = Cbl-b-HiBit KI Jurkat Cells, incubated at least 20 hours, maximum degradation observed

T1 sequence (Q13191 whole entry): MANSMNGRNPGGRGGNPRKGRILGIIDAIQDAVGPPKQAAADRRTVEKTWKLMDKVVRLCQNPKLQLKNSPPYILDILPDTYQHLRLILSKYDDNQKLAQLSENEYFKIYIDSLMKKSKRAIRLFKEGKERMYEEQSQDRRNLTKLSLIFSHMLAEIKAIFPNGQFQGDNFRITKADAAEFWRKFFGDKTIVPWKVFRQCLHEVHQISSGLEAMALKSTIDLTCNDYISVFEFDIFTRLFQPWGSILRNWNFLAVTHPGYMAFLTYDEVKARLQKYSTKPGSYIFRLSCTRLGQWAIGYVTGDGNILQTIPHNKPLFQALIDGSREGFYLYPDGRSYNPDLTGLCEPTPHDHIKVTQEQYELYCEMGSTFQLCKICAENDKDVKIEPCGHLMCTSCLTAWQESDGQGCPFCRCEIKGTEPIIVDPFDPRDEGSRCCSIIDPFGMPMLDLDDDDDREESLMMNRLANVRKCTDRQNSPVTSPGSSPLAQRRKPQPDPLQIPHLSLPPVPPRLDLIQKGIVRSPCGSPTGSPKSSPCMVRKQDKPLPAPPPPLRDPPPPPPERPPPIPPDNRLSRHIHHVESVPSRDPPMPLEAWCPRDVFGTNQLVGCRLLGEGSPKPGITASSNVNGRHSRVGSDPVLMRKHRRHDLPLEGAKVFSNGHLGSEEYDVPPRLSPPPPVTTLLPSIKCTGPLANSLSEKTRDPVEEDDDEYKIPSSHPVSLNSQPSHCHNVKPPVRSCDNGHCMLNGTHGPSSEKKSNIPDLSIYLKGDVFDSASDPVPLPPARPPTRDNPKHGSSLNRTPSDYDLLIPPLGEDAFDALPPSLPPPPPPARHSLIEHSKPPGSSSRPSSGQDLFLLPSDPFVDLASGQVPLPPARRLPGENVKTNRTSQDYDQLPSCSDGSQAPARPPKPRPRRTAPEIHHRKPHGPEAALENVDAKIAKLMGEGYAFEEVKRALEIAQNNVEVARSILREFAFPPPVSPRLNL

SMILES	DC50 (Cbl-b [1]) [µM]	DC50 (Cbl-b [2]; [3]) [µM]	Dmax (Cbl-b [2]; [4]) [%]	Dmax (Cbl-b [1]) [%]	Dmax (Cbl-b [2]) [%]	Cbl-b Degredation Method B Dmax (%) (Cbl-b [1])
Cn1cnnc1CC1(c2cccc(N3Cc4c(cc(N5CCC(COCCOc6ccc7c(c6)C(=O)N(C6CCC(=O)NC6=O)C7=O)CC5)cc4C(F)(F)F)C3=O)c2)COC1 (stereo not shown) [Example 15, 2-(2,6-dioxo-3-piperidyl)-5-[2-[[1-[2-[3-[3-[(4-methyl-1,2,4-triazol-3-yl)methyl]oxetan-3-yl]phenyl]-3-oxo-7-(trifluoromethyl)isoindolin-5-yl]-4-piperidyl]methoxy]ethoxy]isoindoline-1,3-dione]	> 0.5	0.05 to 0.5	35 to 70	–	–	–
Cn1cnnc1CC1(c2cccc(N3Cc4c(cc(CN5CCC[C@H](CN6CCC7(CC6)CCN(c6ccc8c(c6)C(=O)N(C6CCC(=O)NC6=O)C8=O)CC7)C5)cc4C(F)(F)F)C3=O)c2)COC1 (stereo partly drawn) [Example 98, 2-(2,6-dioxopiperidin-3-yl)-5-(9-{[(3R)-1-{[2-(3-{3-[(4-methyl-4H-1,2,4-triazol-3-yl)methyl]oxetan-3-yl}phenyl)-3-oxo-7-(trifluoromethyl)-2,3-dihydro-1H-isoindol-5-yl]methyl}piperidin-3-yl]methyl}-3,9-diazaspiro[5.5]undecan-3-yl)-2,3-dihydro-1H-isoindole-1,3-dione]	> 0.5	> 0.5	–	–	–	–
CC1CC(CN2CCC(CC3CCN(c4ccc5c(c4)C(=O)N(C4CCC(=O)NC4=O)C5=O)CC3)CC2)CN(Cc2cc3c(c(C(F)(F)F)c2)CN(c2cccc(C4(Cc5nncn5C)COC4)c2)C3=O)C1 (stereo not shown) [Example 94, 2-(2,6-dioxopiperidin-3-yl)-5-[4-({1-[(5-methyl-1-{[2-(3-{3-[(4-methyl-4H-1,2,4-triazol-3-yl)methyl]oxetan-3-yl}phenyl)-3-oxo-7-(trifluoromethyl)-2,3-dihydro-1H-isoindol-5-yl]methyl}piperidin-3-yl)methyl]piperidin-4-yl}methyl)piperidin-1-yl]-2,3-dihydro-1H-isoindole-1,3-dione]	< 0.005	0.005 to 0.05	35 to 70	35 to 70	–	–
Cn1cnnc1CC1(c2cccc(N3Cc4c(cc(CN5CCC(CN6CC7(CCN(c8ccc9c(c8)C(=O)N(C8CCC(=O)NC8=O)C9=O)CC7)C6)CC5)cc4C(F)(F)F)C3=O)c2)COC1 (stereo not shown) [Example 81, 2-(2,6-dioxopiperidin-3-yl)-5-{2-[(1-{[2-(3-{3-[(4-methyl-4H-1,2,4-triazol-3-yl)methyl]oxetan-3-yl}phenyl)-3-oxo-7-(trifluoromethyl)-2,3-dihydro-1H-isoindol-5-yl]methyl}piperidin-4-yl)methyl]-2,7-diazaspiro[3.5]nonan-7-yl}-2,3-dihydro-1H-isoindole-1,3-dione]	> 0.5	> 0.5	–	–	–	–
Cn1cnnc1CC1(c2cccc(N3Cc4c(cc(CN5CCC[C@H](CN6CCN(C[C@H]7CC[C@H](OC8CCN(c9ccc%10c(c9F)CN(C9CCC(=O)NC9=O)C%10=O)CC8)CC7)CC6(C)C)C5)cc4C(F)(F)F)C3=O)c2)COC1 (stereo partly drawn) [Example 148, 3-[5-[4-[4-[[3,3-dimethyl-4-[[(3S)-1-[[2-[3-[3-[(4-methyl-1,2,4-triazol-3-yl)methyl]oxetan-3-yl]phenyl]-3-oxo-7-(trifluoromethyl)isoindolin-5-yl]methyl]-3-piperidyl]methyl]piperazin-1-yl]methyl]cyclohexoxy]-1-piperidyl]-4-fluoro-1-oxo-isoindolin-2-yl]piperidine-2,6-dione]	< 0.005	< 0.005	–	> 70	> 70	–
CC1c2nc(N3CCC(O[C@H]4CC[C@H](CN5CCN(Cc6cc7c(c(C(F)(F)F)c6)CN(c6cccc(C8(Cc9nncn9C)CC8)c6)C7=O)CC5)CC4)CC3)ccc2C(=O)N1C1CCC(=O)NC1=O (mixture of isomers) [Example 234, rac-3-[7-methyl-5-oxo-2-(4-{[(1r,4r)-4-[(4-{[2-(3-{1-[(4-methyl-4H-1,2,4-triazol-3-yl)methyl]cyclopropyl}phenyl)-3-oxo-7-(trifluoromethyl)-2,3-dihydro-1H-isoindol-5-yl]methyl}piperazin-1-yl)methyl]cyclohexyl]oxy}piperidin-1-yl)-5H,6H,7H-pyrrolo[3,4-b]pyridin-6-yl]piperidine-2,6-dione]	< 0.005	0.005 to 0.05	35 to 70	35 to 70	–	–
C[C@@H]1c2nc(N3CCC(O[C@H]4CC[C@H](CN5CCN(Cc6cc7c(c(C(F)(F)F)c6)CN(c6cccc(C8(Cc9nncn9C)CC(C#N)C8)c6)C7=O)CC5(C)C)CC4)CC3)ccc2C(=O)N1C1CCC(=O)NC1=O (single isomer, unassigned) [Example 311, (1r***,3r***)-3-(3-{6-[(3,3-dimethyl-4-{[(1r**,4r**)-4-({1-[(7R*)-6-(2,6-dioxopiperidin-3-yl)-7-methyl-5-oxo-5H,6H,7H-pyrrolo[3,4-b]pyridin-2-yl]piperidin-4-yl}oxy)cyclohexyl]methyl}piperazin-1-yl)methyl]-1-oxo-4-(trifluoromethyl)-2,3-dihydro-1H-isoindol-2-yl}phenyl)-3-[(4-methyl-4H-1,2,4-triazol-3-yl)methyl]cyclobutane-1-carbonitrile]	< 0.005	0.05 to 0.5	35 to 70	–	–	C (C ≤ 35)
CC1CN(C[C@H]2CC[C@@H](OC3CCN(c4ccc5c(c4F)CN(C4CCC(=O)NC4=O)C5=O)CC3)CC2)CCN1C[C@H]1CCCN(Cc2cc3c(c(C(F)(F)F)c2)CN(c2cccc(C4(Cc5nncn5C)COC4)c2)C3=O)C1 (stereo partly drawn) [Example 166, 3-[4-fluoro-1-oxo-5-(4-{[(1r,4r)-4-[(3-methyl-4-{[(3S)-1-{[2-(3-{3-[(4-methyl-4H-1,2,4-triazol-3-yl)methyl]oxetan-3-yl}phenyl)-3-oxo-7-(trifluoromethyl)-2,3-dihydro-1H-isoindol-5-yl]methyl}piperidin-3-yl]methyl}piperazin-1-yl)methyl]cyclohexyl]oxy}piperidin-1-yl)-2,3-dihydro-1H-isoindol-2-yl]piperidine-2,6-dione]	< 0.005	< 0.005	> 70	> 70	–	–
Cn1cnnc1CC1(c2cccc(N3Cc4c(cc(CN5CCC[C@H](CN6CCC(C7CCN(c8ccc9c(c8)C(=O)N(C8CCC(=O)NC8=O)C9=O)CC7)CC6)C5)cc4C(F)(F)F)C3=O)c2)COC1 (stereo partly drawn) [Example 96, 2-(2,6-dioxopiperidin-3-yl)-5-(1′-{[(3R)-1-{[2-(3-{3-[(4-methyl-4H-1,2,4-triazol-3-yl)methyl]oxetan-3-yl}phenyl)-3-oxo-7-(trifluoromethyl)-2,3-dihydro-1H-isoindol-5-yl]methyl}piperidin-3-yl]methyl}-[4,4′-bipiperidin]-1-yl)-2,3-dihydro-1H-isoindole-1,3-dione]	> 0.5	> 0.5	–	–	–	–
CC(C)n1c(=O)n(C2CCC(=O)NC2=O)c2ccc(N3CCC(O[C@H]4CC[C@H](CN5CCN(Cc6cc7c(c(C(F)(F)F)c6)CN(c6cccc(C8(Cc9nncn9C)CC(C#N)C8)c6)C7=O)C(C)(C)C5)CC4)CC3)c(F)c21 (stereo partly shown) [Example 318, (1r**,3r**)-3-(3-{6-[(2,2-dimethyl-4-{[(1r*,4r*)-4-({1-[1-(2,6-dioxopiperidin-3-yl)-4-fluoro-2-oxo-3-(propan-2-yl)-2,3-dihydro-1H-1,3-benzodiazol-5-yl]piperidin-4-yl}oxy)cyclohexyl]methyl}piperazin-1-yl)methyl]-1-oxo-4-(trifluoromethyl)-2,3-dihydro-1H-isoindol-2-yl}phenyl)-3-[(4-methyl-4H-1,2,4-triazol-3-yl)methyl]cyclobutane-1-carbonitrile]	< 0.005	0.05 to 0.5	35 to 70	–	–	C (C ≤ 35)
Cn1cnnc1CC1(c2cccc(N3Cc4c(cc(CN5CCC(N6CCN(CC7CCN(c8ccc9c(c8)C(=O)N(C8CCC(=O)NC8=O)C9=O)CC7)CC6)CC5)cc4C(F)(F)F)C3=O)c2)COC1 (stereo not shown) [Example 103, 2-(2,6-dioxopiperidin-3-yl)-5-(4-{[4-(1-{[2-(3-{3-[(4-methyl-4H-1,2,4-triazol-3-yl)methyl]oxetan-3-yl}phenyl)-3-oxo-7-(trifluoromethyl)-2,3-dihydro-1H-isoindol-5-yl]methyl}piperidin-4-yl)piperazin-1-yl]methyl}piperidin-1-yl)-2,3-dihydro-1H-isoindole-1,3-dione]	> 0.5	> 0.5	35 to 70	–	–	–
Cn1cnnc1CC1(c2cccc(N3Cc4c(cc(CN5CCN(C[C@H]6CC[C@H](OC7CCN(c8cccc9c8CC(=O)N9C8CCC(=O)NC8=O)CC7)CC6)CC5(C)C)cc4C(F)(F)F)C3=O)c2)CC(C#N)C1 (stereo partly shown) [Example 315, (1r**,3r**)-3-(3-{6-[(2,2-dimethyl-4-{[(1r*,4r*)-4-({1-[1-(2,6-dioxopiperidin-3-yl)-2-oxo-2,3-dihydro-1H-indol-4-yl]piperidin-4-yl}oxy)cyclohexyl]methyl}piperazin-1-yl)methyl]-1-oxo-4-(trifluoromethyl)-2,3-dihydro-1H-isoindol-2-yl}phenyl)-3-[(4-methyl-4H-1,2,4-triazol-3-yl)methyl]cyclobutane-1-carbonitrile]	< 0.005	0.05 to 0.5	35 to 70	–	–	C (C ≤ 35)
